# Assays:
# Escherichia coli [1] = assay: Antimicrobial activity against azide-resistant aac(6')-Ib-cr deficient Escherichia coli J53 qnrA1 bearing pHS4 transconjugant from Enterobacter cloacae 91 by agar dilution method; type: functional
# Escherichia coli [2] = assay: Antimicrobial activity against azide-resistant aac(6')-Ib-cr deficient Escherichia coli J53 qnrA1 bearing pHS5 transconjugant from Enterobacter cloacae 641 by agar dilution method; type: functional
# Escherichia coli [3] = assay: Antimicrobial activity against azide-resistant aac(6')-Ib-cr expressing Escherichia coli J53 qnrA1 bearing pHS3 transconjugant from Citrobacter freundii 64 by agar dilution method; type: functional
# Escherichia coli [4] = assay: Antimicrobial activity against azide-resistant aac(6')-Ib-cr expressing Escherichia coli J53 qnrA1 bearing pHS6 transconjugant from Escherichia coli 650 by agar dilution method; type: functional
# Escherichia coli [5] = assay: Antimicrobial activity against azide-resistant Escherichia coli J53 by agar dilution method; type: functional
# Escherichia coli [6] = assay: Antimicrobial activity Escherichia coli 633 expressing plasmid-mediated quinolone resistance qnr A gene by agar dilution method; type: functional
# Enterobacter cloacae [7] = assay: Antimicrobial activity Enterobacter cloacae 91 expressing plasmid-mediated quinolone resistance qnr A gene by agar dilution method; type: functional
# Enterobacter cloacae [8] = assay: Antimicrobial activity Enterobacter cloacae 63 expressing plasmid-mediated quinolone resistance qnr A gene by agar dilution method; type: functional
# Enterobacter cloacae [9] = assay: Antimicrobial activity Enterobacter cloacae 113 expressing plasmid-mediated quinolone resistance qnr A gene by agar dilution method; type: functional
# Escherichia coli [10] = assay: microbe, parasite or virus in culture; settings: 650
# Description: (§1) Antimicrobial activity Escherichia coli 650 expressing plasmid-mediated quinolone resistance qnr A gene by agar dilution method
# Citrobacter freundii = assay: Antimicrobial activity Citrobacter freundii 64 expressing plasmid-mediated quinolone resistance qnr A gene by agar dilution method; type: functional
# Enterobacter cloacae [11] = assay: Antimicrobial activity Enterobacter cloacae 641 expressing plasmid-mediated quinolone resistance qnr A gene by agar dilution method; type: functional
# Escherichia coli [12] = assay: Ratio of MIC for pKK232-8-HS6-transformed Escherichia coli HB101 transformants to MIC for pKK232-8-HS4-transformed Escherichia coli HB101 transformants; type: functional
# Escherichia coli [13] = assay: Antibacterial activity against pKK232-8-HS4-transformed Escherichia coli HB101 transformants harboring promoter sequence of qnrA1 gene cloned with promoterless cat gene by agar dilution method; type: functional
# Escherichia coli [14] = assay: Antibacterial activity against Escherichia coli HB101 by agar dilution method; type: functional
# Escherichia coli [15] = assay: Antibacterial activity against pKK232-8-tranformed Escherichia coli HB101 transformants harboring promoterless cat gene by agar dilution method; type: functional
# Escherichia coli [16] = assay: Antibacterial activity against pKK232-8-HS5-transformed Escherichia coli HB101 transformants harboring promoter sequence of qnrA1 gene cloned with promoterless cat gene by agar dilution method; type: functional
# Escherichia coli [17] = assay: Antibacterial activity against pKK232-8-HS6-transformed Escherichia coli HB101 transformants harboring promoter sequence of qnrA1 gene cloned with promoterless cat gene by agar dilution method; type: functional
# Escherichia coli [18] = assay: Ratio of MIC for pKK232-8-HS6-transformed Escherichia coli HB101 transformants to MIC for pKK232-8-HS3-transformed Escherichia coli HB101 transformants; type: functional
# Escherichia coli [19] = assay: Ratio of MIC for pKK232-8-HS6-transformed Escherichia coli HB101 transformants to MIC for pKK232-8-HS5-transformed Escherichia coli HB101 transformants; type: functional
# Escherichia coli [20] = assay: Antibacterial activity against pKK232-8-HS3-transformed Escherichia coli HB101 transformants harboring promoter sequence of qnrA1 gene cloned with promoterless cat gene by agar dilution method; type: functional
# Escherichia coli [21] = assay: Antibacterial activity against Escherichia coli isolate 1B harboring qnrA1 and blaVEB1 genes by agar dilution method
# Escherichia coli [22] = settings: 650
# Description: as §1
Compound,MIC (Escherichia coli [1]) [µg/mL],MIC (Escherichia coli [2]) [µg/mL],MIC (Escherichia coli [3]) [µg/mL],MIC (Escherichia coli [4]) [µg/mL],MIC (Escherichia coli [5]) [µg/mL],MIC (Escherichia coli [6]) [µg/mL],MIC (Enterobacter cloacae [7]) [µg/mL],MIC (Enterobacter cloacae [8]) [µg/mL],MIC (Enterobacter cloacae [9]) [µg/mL],MIC (Citrobacter freundii) [µg/mL],MIC (Enterobacter cloacae [11]) [µg/mL],also measured
NCC[C@H](O)C(=O)N[C@@H]1C[C@H](N)[C@@H](O[C@H]2O[C@H](CN)[C@@H](O)[C@H](O)[C@H]2O)[C@H](O)[C@H]1O[C@H]1O[C@H](CO)[C@@H](O)[C@H](N)[C@H]1O [AMIKACIN],4,4,2,2,0.5,–,–,–,–,–,–,–
CC1(C)S[C@@H]2[C@H](NC(=O)[C@H](N)c3ccccc3)C(=O)N2[C@H]1C(=O)O [AMPICILLIN],≥ 512,≥ 512,512,512,8,–,–,–,–,–,–,–
CO/N=C(\C(=O)N[C@@H]1C(=O)N2C(C(=O)O)=C(COC(C)=O)CS[C@H]12)c1csc(N)n1 [CEFOTAXIME],8,8,≤ 0.06,0.125,≤ 0.06,≥ 128,32,64,64,2,32,MIC (Escherichia coli [10]): 1 µg/mL
CC(C)(O/N=C(\C(=O)N[C@@H]1C(=O)N2C(C(=O)[O-])=C(C[n+]3ccccc3)CS[C@H]12)c1csc(N)n1)C(=O)O [CEFTAZIDIME],8,32,0.125,0.125,0.125,4,128,32,128,4,64,MIC (Escherichia coli [10]): 4 µg/mL
O=C(N[C@H](CO)[C@H](O)c1ccc([N+](=O)[O-])cc1)C(Cl)Cl [CHLORAMPHENICOL],–,–,–,–,–,–,–,–,–,–,–,Ratio (Escherichia coli [12]): 12; MIC (Escherichia coli [13]): 8 µg/mL; MIC (Escherichia coli [14]): 3 µg/mL; MIC (Escherichia coli [15]): 3 µg/mL; MIC (Escherichia coli [16]): 8 µg/mL; MIC (Escherichia coli [17]): 96 µg/mL; Ratio (Escherichia coli [18]): 12; Ratio (Escherichia coli [19]): 12; MIC (Escherichia coli [20]): 8 µg/mL
O=C(O)c1cn(C2CC2)c2cc(N3CCNCC3)c(F)cc2c1=O [CIPROFLOXACIN],–,–,–,–,–,–,–,–,–,–,–,MIC (Escherichia coli [21]): > 32 µg/mL
NC[C@H]1O[C@H](O[C@H]2[C@H](O)[C@@H](O[C@H]3O[C@H](CO)[C@@H](O)[C@H](N)[C@H]3O)[C@H](N)C[C@@H]2N)[C@H](O)[C@@H](O)[C@@H]1O [KANAMYCIN],64,64,8,16,0.5,–,–,–,–,–,–,–
C[C@H]1COc2c(N3CCN(C)CC3)c(F)cc3c(=O)c(C(=O)O)cn1c23.C[C@H]1COc2c(N3CCN(C)CC3)c(F)cc3c(=O)c(C(=O)O)cn1c23.O [LEVOFLOXACIN],0.19,0.19,0.19,0.38,–,–,–,–,–,–,–,–
CN[C@@H]1[C@H](O[C@H]2[C@H](O[C@H]3[C@H](O)[C@@H](O)[C@H](N=C(N)N)[C@@H](O)[C@@H]3N=C(N)N)O[C@@H](C)[C@]2(O)C=O)O[C@@H](CO)[C@H](O)[C@H]1O [STREPTOMYCIN],8,8,2,1,1,–,–,–,–,–,–,–
Cc1cc(NS(=O)(=O)c2ccc(N)cc2)no1 [SULFAMETHOXAZOLE],≥ 512,≥ 512,≥ 512,≥ 512,8,≥ 512,≥ 512,≥ 512,≥ 512,≥ 512,≥ 512,MIC (Escherichia coli [10]): ≥ 512 µg/mL
NC[C@H]1O[C@H](O[C@H]2[C@H](O)[C@@H](O[C@H]3O[C@H](CO)[C@@H](O)[C@H](N)[C@H]3O)[C@H](N)C[C@@H]2N)[C@H](N)C[C@@H]1O [TOBRAMYCIN],8,8,8,8,0.25,–,–,–,–,–,–,–
COc1cc(Cc2cnc(N)nc2N)cc(OC)c1OC [TRIMETHOPRIM],≥ 512,≥ 512,≤ 0.06,0.25,≤ 0.06,–,–,–,–,–,–,–
GENTAMICIN,2,2,8,0.25,0.25,> 128,8,4,8,32,4,MIC (Escherichia coli [22]): > 128 µg/mL
